ChEMBL document CHEMBL4507318, “Data for DCP probe BAY-985” (2021)

Experiments:
[1] = biological target: High affinity nerve growth factor receptor (Homo sapiens) (UniProt P04629)
[2] = biological target: Myosin-IIIa (Homo sapiens) (UniProt Q8NEV4)
[3] = biological target: Dual specificity mitogen-activated protein kinase kinase 1 (Homo sapiens) (UniProt Q02750)
[4] = biological target: Mitogen-activated protein kinase kinase kinase 13 (Homo sapiens) (UniProt O43283)
[5] = biological target: Serine/threonine-protein kinase WNK1 (Homo sapiens) (UniProt Q9H4A3)
[6] = test system: Leucine-rich repeat serine/threonine-protein kinase 2 (Homo sapiens), Q5S007 [G2019S]
[7] = test system: Tyrosine-protein kinase ABL1 (Homo sapiens), P00519 [T315I]
[8] = biological target: Serine/threonine-protein kinase PAK 5 (Homo sapiens) (UniProt Q9P286)
[9] = test system: Receptor-type tyrosine-protein kinase FLT3 (Homo sapiens), P36888 [D835V]
[10] = biological target: Myotonin-protein kinase (Homo sapiens) (UniProt Q09013)
[11] = test system: Proto-oncogene tyrosine-protein kinase receptor Ret (Homo sapiens), P07949 [V804M]
[12] = biological target: Serine/threonine-protein kinase PknB (Mycobacterium tuberculosis) (UniProt P9WI81)
[13] = biological target: Muscarinic acetylcholine receptor M4 (Homo sapiens) (UniProt P08173); conditions: Compound concentration 10.0 uM
[14] = biological target: Serine/threonine-protein kinase N2 (Homo sapiens) (UniProt Q16513)
[15] = biological target: Serine/threonine-protein kinase NIM1 (Homo sapiens) (UniProt Q8IY84)
[16] = biological target: Tyrosine-protein kinase HCK (Homo sapiens) (UniProt P08631)
[17] = biological target: Mitogen-activated protein kinase 15 (Homo sapiens) (UniProt Q8TD08)
[18] = biological target: RAC-gamma serine/threonine-protein kinase (Homo sapiens) (UniProt Q9Y243)
[19] = biological target: Serine/threonine-protein kinase WNK3 (Homo sapiens) (UniProt Q9BYP7)
[20] = biological target: Ribosomal protein S6 kinase alpha-1 (Homo sapiens) (UniProt Q15418)
[21] = biological target: Serine/threonine-protein kinase TNNI3K (Homo sapiens) (UniProt Q59H18)
[22] = biological target: Insulin receptor (Homo sapiens) (UniProt P06213)
[23] = biological target: Non-receptor tyrosine-protein kinase TNK1 (Homo sapiens) (UniProt Q13470)
[24] = biological target: Cyclin-dependent kinase 4 (Homo sapiens) (UniProt P11802)
[25] = test system: Receptor-type tyrosine-protein kinase FLT3 (Homo sapiens), P36888 [K663Q]
[26] = biological target: Dual specificity protein kinase CLK4 (Homo sapiens) (UniProt Q9HAZ1)
[27] = biological target: Casein kinase I isoform gamma-1 (Homo sapiens) (UniProt Q9HCP0)
[28] = biological target: Casein kinase I isoform gamma-3 (Homo sapiens) (UniProt Q9Y6M4)
[29] = biological target: Vascular endothelial growth factor receptor 2 (Homo sapiens) (UniProt P35968)
[30] = biological target: cGMP-dependent protein kinase 1 (Homo sapiens) (UniProt Q13976)
[31] = biological target: Serine/threonine-protein kinase PAK 3 (Homo sapiens) (UniProt O75914)
[32] = biological target: Ephrin type-A receptor 3 (Homo sapiens) (UniProt P29320)
[33] = biological target: Activin receptor type-2B (Homo sapiens) (UniProt Q13705)
[34] = biological target: Interleukin-1 receptor-associated kinase 3 (Homo sapiens) (UniProt Q9Y616)
[35] = biological target: GABA-A receptor; anion channel (Rattus norvegicus) (UniProt O09028+P15431+P18506+P18508+P19969+P20236+P23574+P23576+P28471+P28473+P30191+P62813+P63079+P63138+Q91ZM7+Q9ES14); conditions: Compound concentration 10.0 uM
[36] = biological target: Rho-associated protein kinase 1 (Homo sapiens) (UniProt Q13464)
[37] = biological target: Tyrosine-protein kinase ABL2 (Homo sapiens) (UniProt P42684)
[38] = biological target: SRSF protein kinase 2 (Homo sapiens) (UniProt P78362)
[39] = biological target: Activated CDC42 kinase 1 (Homo sapiens) (UniProt Q07912)
[40] = biological target: Transient receptor potential cation channel subfamily M member 6 (Homo sapiens) (UniProt Q9BX84)
[41] = biological target: Myosin light chain kinase (Homo sapiens) (UniProt Q32MK0)
[42] = biological target: Ribosomal protein S6 kinase alpha-2 (Homo sapiens) (UniProt Q15349)
[43] = biological target: Cyclin-dependent kinase 2 homolog (Plasmodium falciparum (isolate 3D7)) (UniProt P61075)
[44] = biological target: Rho-associated protein kinase 2 (Homo sapiens) (UniProt O75116)
[45] = Compound concentration 1000.0 nM
[46] = Compound concentration 100.0 nM

Chain of Insulin receptor (Homo sapiens) (P06213 28-758 limits assumed): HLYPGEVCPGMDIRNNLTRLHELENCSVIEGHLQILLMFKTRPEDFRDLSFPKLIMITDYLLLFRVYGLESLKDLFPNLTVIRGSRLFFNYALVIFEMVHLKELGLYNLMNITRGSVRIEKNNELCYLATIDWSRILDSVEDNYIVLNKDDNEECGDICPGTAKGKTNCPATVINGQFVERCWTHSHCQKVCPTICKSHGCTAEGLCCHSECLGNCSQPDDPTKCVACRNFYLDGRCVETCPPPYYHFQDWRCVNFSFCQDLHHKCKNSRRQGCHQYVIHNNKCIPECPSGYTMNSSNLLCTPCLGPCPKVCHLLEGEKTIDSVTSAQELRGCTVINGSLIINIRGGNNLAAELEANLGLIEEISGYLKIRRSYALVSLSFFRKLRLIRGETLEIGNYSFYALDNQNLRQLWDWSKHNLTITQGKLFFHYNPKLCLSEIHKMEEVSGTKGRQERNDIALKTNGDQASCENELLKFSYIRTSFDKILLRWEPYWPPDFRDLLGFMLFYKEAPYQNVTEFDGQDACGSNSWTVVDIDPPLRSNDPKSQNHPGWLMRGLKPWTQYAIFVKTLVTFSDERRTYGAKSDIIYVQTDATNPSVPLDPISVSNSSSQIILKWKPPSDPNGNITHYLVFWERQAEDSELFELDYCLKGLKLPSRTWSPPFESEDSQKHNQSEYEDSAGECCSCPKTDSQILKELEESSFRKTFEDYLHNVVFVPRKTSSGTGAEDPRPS
Chain of Insulin receptor (Homo sapiens) (P06213 763-1382 limits assumed): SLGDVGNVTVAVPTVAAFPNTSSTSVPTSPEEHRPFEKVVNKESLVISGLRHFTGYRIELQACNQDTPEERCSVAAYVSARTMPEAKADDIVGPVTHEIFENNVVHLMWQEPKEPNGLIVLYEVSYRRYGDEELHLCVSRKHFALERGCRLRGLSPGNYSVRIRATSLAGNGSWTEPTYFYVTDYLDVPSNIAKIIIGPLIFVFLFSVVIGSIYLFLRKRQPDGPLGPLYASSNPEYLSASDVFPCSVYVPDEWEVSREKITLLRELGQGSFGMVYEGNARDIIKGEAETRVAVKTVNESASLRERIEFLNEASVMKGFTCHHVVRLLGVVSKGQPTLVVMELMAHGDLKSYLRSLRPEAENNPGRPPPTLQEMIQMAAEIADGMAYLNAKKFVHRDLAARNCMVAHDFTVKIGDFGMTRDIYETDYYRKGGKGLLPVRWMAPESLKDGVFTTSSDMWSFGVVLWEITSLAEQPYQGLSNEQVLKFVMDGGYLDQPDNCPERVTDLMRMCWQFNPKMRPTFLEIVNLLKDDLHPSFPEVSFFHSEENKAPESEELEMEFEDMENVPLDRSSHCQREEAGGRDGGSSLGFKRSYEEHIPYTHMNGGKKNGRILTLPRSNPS
Chain of Cyclin-dependent kinase 4 (Homo sapiens) (P11802 whole entry): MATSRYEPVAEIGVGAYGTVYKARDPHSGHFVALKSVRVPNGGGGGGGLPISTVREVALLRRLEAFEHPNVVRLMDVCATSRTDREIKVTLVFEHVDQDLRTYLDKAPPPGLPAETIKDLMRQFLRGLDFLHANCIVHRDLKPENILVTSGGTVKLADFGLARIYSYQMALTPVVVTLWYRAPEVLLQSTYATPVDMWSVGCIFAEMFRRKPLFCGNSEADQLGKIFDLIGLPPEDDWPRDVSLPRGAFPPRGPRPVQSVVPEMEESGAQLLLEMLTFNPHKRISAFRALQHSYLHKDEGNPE
Chain of Casein kinase I isoform gamma-3 (Homo sapiens) (Q9Y6M4 whole entry, looked up, canonical isoform): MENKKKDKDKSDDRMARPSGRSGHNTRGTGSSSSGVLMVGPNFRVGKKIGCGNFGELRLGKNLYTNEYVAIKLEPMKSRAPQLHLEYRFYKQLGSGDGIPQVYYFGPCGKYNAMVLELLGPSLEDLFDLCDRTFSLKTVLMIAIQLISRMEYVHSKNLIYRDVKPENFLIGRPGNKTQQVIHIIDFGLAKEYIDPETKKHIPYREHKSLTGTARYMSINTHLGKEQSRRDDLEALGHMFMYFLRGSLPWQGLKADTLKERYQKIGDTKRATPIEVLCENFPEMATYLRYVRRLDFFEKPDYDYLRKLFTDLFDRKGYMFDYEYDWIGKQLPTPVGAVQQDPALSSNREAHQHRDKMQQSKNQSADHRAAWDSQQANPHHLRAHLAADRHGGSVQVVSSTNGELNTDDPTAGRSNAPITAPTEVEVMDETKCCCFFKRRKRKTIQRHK
Chain of Interleukin-1 receptor-associated kinase 3 (Homo sapiens) (Q9Y616 whole entry): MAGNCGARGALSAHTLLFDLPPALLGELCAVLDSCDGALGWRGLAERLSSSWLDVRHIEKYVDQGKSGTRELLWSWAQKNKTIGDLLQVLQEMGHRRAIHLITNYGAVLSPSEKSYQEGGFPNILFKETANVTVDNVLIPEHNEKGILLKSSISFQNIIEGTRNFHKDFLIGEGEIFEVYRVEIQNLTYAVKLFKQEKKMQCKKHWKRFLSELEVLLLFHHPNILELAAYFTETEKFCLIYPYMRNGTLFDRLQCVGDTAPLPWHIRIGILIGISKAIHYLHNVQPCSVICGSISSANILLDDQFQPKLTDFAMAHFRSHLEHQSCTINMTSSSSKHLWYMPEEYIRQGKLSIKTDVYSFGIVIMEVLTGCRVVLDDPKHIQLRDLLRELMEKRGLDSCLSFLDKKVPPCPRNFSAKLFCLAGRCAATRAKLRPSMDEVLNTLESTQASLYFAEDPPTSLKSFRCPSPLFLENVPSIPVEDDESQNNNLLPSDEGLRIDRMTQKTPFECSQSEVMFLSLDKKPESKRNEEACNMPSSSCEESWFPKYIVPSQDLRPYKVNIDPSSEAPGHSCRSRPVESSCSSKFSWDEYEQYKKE
Chain of Proto-oncogene tyrosine-protein kinase receptor Ret (Homo sapiens), P07949 [V804M] (P07949 whole entry V804M): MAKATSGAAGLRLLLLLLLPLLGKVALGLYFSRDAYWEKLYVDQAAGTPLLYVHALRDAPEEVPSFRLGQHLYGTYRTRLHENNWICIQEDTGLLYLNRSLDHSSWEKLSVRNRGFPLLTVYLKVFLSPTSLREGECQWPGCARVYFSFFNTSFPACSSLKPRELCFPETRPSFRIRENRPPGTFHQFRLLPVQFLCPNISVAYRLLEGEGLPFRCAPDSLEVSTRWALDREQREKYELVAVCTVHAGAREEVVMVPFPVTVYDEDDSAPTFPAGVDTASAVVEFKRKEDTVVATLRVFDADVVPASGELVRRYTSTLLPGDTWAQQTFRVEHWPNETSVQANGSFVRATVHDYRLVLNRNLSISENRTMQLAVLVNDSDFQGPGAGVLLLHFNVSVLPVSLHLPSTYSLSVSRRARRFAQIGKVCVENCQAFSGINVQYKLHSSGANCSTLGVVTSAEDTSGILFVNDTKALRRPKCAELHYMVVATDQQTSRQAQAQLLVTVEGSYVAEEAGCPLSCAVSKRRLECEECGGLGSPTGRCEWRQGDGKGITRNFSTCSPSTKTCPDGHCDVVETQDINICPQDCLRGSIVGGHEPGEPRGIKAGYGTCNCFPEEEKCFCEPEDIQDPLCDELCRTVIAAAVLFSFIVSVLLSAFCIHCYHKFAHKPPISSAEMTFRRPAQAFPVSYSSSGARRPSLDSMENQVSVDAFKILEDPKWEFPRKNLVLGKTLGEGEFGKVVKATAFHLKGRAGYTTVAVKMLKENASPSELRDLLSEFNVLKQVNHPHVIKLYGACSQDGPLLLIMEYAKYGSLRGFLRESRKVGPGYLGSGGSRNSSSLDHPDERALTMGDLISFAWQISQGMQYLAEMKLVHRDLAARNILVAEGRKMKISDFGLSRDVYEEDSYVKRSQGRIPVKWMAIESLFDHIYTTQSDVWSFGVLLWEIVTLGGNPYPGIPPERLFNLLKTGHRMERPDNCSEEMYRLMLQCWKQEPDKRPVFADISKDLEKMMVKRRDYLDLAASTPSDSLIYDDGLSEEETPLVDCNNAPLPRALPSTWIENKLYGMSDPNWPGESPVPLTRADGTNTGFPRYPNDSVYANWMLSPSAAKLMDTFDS
Chain of Myotonin-protein kinase (Homo sapiens) (Q09013 whole entry): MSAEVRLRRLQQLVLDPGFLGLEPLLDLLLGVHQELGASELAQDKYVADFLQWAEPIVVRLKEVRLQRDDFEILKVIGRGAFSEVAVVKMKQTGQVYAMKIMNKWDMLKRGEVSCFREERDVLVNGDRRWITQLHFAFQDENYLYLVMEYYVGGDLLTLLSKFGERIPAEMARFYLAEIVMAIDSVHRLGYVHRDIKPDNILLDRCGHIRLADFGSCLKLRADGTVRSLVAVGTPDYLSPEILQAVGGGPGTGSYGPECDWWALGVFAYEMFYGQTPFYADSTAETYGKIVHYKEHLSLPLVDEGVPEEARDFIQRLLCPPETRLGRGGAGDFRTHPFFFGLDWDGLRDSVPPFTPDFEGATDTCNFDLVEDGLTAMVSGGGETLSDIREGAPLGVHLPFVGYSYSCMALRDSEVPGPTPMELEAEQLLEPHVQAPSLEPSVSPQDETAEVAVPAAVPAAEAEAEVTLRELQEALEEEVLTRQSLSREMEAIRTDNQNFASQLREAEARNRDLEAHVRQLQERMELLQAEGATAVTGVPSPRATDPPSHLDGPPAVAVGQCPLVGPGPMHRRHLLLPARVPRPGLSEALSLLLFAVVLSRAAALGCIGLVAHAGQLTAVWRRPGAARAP
Chain of RAC-gamma serine/threonine-protein kinase (Homo sapiens) (Q9Y243 whole entry): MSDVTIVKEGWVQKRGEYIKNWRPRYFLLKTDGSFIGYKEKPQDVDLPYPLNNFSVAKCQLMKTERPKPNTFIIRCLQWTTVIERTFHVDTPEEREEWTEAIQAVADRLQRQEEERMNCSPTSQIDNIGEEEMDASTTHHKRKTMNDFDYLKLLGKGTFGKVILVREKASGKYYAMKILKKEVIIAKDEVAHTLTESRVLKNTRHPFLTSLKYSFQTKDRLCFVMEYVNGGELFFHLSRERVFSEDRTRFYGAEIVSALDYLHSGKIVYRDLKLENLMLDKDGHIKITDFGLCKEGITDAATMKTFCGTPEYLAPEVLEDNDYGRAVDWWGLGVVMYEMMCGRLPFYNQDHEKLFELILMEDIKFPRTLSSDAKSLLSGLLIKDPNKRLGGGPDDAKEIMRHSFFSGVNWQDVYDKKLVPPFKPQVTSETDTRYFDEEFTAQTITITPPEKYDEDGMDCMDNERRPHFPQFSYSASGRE

CN(C)c1ncnc(-c2ccc3nc(Nc4cc(CN5CCN(C(=O)CC(F)(F)F)CC5)ccn4)[nH]c3c2)c1Cl [BAY-440]
active: residual activity [1, 45] 38% | residual activity [7, 45] 46% | residual activity [9, 45] 7%
inactive: residual activity [2, 45] 100% | residual activity [3, 45] 78% | residual activity [4, 45] 86% | residual activity [5, 45] 86% | residual activity [6, 45] 69% | residual activity [8, 45] 85% | residual activity [10, 45] 91% | residual activity [11, 45] 93% | residual activity [12, 45] 100% | inhibition [13] 4.83% | residual activity [14, 45] 85% | residual activity [15, 45] 61% | residual activity [16, 45] 80% | residual activity [17, 45] 73% | residual activity [18, 45] 96% | residual activity [19, 45] 85% | residual activity [20, 45] 98% | residual activity [21, 45] 50% | residual activity [22, 45] 100% | residual activity [23, 45] 96% | residual activity [24, 45] 83% | residual activity [25, 45] 81% | residual activity [26, 45] 99% | residual activity [27, 45] 76% | residual activity [28, 45] 100% | residual activity [29, 45] 74% | residual activity [30, 45] 94% | residual activity [31, 45] 81% | residual activity [32, 45] 63% | residual activity [33, 45] 100% | residual activity [34, 45] 97% | inhibition [35] 14% | residual activity [36, 45] 100% | residual activity [37, 45] 71% | residual activity [38, 45] 76% | residual activity [39, 45] 96% | residual activity [40, 45] 100% | residual activity [41, 45] 90% | residual activity [42, 45] 100% | residual activity [43, 45] 85% | residual activity [44, 45] 91%

C[C@H](c1ccnc(Nc2nc3ccc(-c4cc(N(C)C)ncn4)cc3[nH]2)c1)N1CCN(C(=O)CC(F)(F)F)CC1 [BAY-985]
active: residual activity [9, 46] 32%
inactive: residual activity [1, 46] 79% | residual activity [2, 46] 100% | residual activity [3, 46] 99% | residual activity [4, 46] 100% | residual activity [5, 46] 100% | residual activity [6, 46] 100% | residual activity [7, 46] 100% | residual activity [8, 46] 100% | residual activity [10, 46] 100% | residual activity [11, 46] 76% | residual activity [12, 46] 91% | inhibition [13] 24.7% | residual activity [14, 46] 95% | residual activity [15, 46] 100% | residual activity [16, 46] 91% | residual activity [17, 46] 100% | residual activity [18, 46] 100% | residual activity [19, 46] 100% | residual activity [20, 46] 82% | residual activity [21, 46] 59% | residual activity [22, 46] 100% | residual activity [23, 46] 100% | residual activity [24, 46] 100% | residual activity [25, 46] 60% | residual activity [26, 46] 82% | residual activity [27, 46] 100% | residual activity [28, 46] 100% | residual activity [29, 46] 100% | residual activity [30, 46] 100% | residual activity [31, 46] 100% | residual activity [32, 46] 100% | residual activity [33, 46] 81% | residual activity [34, 46] 76% | inhibition [35] 5.57% | residual activity [36, 46] 100% | residual activity [37, 46] 100% | residual activity [38, 46] 100% | residual activity [39, 46] 100% | residual activity [40, 46] 100% | residual activity [41, 46] 100% | residual activity [42, 46] 98% | residual activity [43, 46] 100% | residual activity [44, 46] 100%
